Measurements from Sander's compilation of Henry's law constants (doi:10.1021/je900711h).

Assay: Henry solubility constant Hcp at 298.15 K (mol/(m3 Pa))
Settings: reference: O’Farrell and Waghorne (2010)

CC(=O)C(Cl)Cl [1,1-dichloro-2-propanone]
Henry solubility constant Hcp: 0.33

COCCOC [1,2-dimethoxyethane]
Henry solubility constant Hcp: 2.1

C1COCOC1 [1,3-dioxane]
Henry solubility constant Hcp: 1.8

CC(=O)CF [1-fluoro-2-propanone]
Henry solubility constant Hcp: 0.46

OCC(Cl)Cl [2,2-dichloroethanol]
Henry solubility constant Hcp: 0.37

OCC(F)F [2,2-difluoroethanol]
Henry solubility constant Hcp: 0.92

CCC(=O)CC [3-pentanone]
Henry solubility constant Hcp: 0.21

O=C1CCCC1 [cyclopentanone]
Henry solubility constant Hcp: 2.8

CCO [ethanol]
Henry solubility constant Hcp: 2.2

CC(C)=O [propanone]
Henry solubility constant Hcp: 0.33
